Measured values from ChEMBL document CHEMBL3813672, “Discovery of anti-cancer activity for benzo[1,2,4]triazin-7-ones: Very strong correlation to pleurotin and thioredoxin reductase inhibition” (Bioorg Med Chem, 2016).
pIC50: −log10 of the molar value.

Key:
[1] = Growth inhibition of human COLO205 cells assessed as cell growth at 10 uM incubated for 48 hrs by sulforhodamine B assay relative to control; format: functional; conditions: COLO 205, 48 h, read-out: Activity
A498 = assay: Growth inhibition of human A498 cells assessed as cell growth at 10 uM incubated for 48 hrs by sulforhodamine B assay relative to control; format: functional; conditions: A498, 48 h, read-out: Activity
[2] = Growth inhibition of human HOP62 cells assessed as cell growth at 10 uM incubated for 48 hrs by sulforhodamine B assay relative to control; format: functional; conditions: HOP-62, 48 h, read-out: Activity
[3] = Growth inhibition of human HCC2998 cells assessed as cell growth at 10 uM incubated for 48 hrs by sulforhodamine B assay relative to control; format: functional; conditions: HCC 2998, 48 h, read-out: Activity
[4] = Growth inhibition of human Caki1 cells assessed as cell growth at 10 uM incubated for 48 hrs by sulforhodamine B assay relative to control; format: functional; conditions: CAKI-1, 48 h, read-out: Activity
[5] = Growth inhibition of human HOP92 cells assessed as cell growth at 10 uM incubated for 48 hrs by sulforhodamine B assay relative to control; format: functional; conditions: HOP-92, 48 h, read-out: Activity
[6] = Growth inhibition of human HCT15 cells assessed as cell growth at 10 uM incubated for 48 hrs by sulforhodamine B assay relative to control; format: functional; conditions: HCT-15, 48 h, read-out: Activity
SK-MEL-2 = assay: Growth inhibition of human SK-MEL-2 cells assessed as cell growth at 10 uM incubated for 48 hrs by sulforhodamine B assay relative to control; format: functional; conditions: SK-MEL-2, 48 h, read-out: Activity
[7] = Growth inhibition of human SF539 cells assessed as cell growth at 10 uM incubated for 48 hrs by sulforhodamine B assay relative to control; format: functional; conditions: SF-539, 48 h, read-out: Activity
[8] = Growth inhibition of human SW620 cells assessed as cell growth at 10 uM incubated for 48 hrs by sulforhodamine B assay relative to control; format: functional; conditions: SW-620, 48 h, read-out: Activity
NCI-H460 = assay: Growth inhibition of human NCI-H460 cells assessed as cell growth at 10 uM incubated for 48 hrs by sulforhodamine B assay relative to control; format: functional; conditions: NCI-H460, 48 h, read-out: Activity
[9] = Quasi-reversible one electron redox potential in dichloromethane containing 0.1 M TBAP assessed as assessed as redox potential during -1/-2 redox transition at 2 mmol measured at 100 mV/s in presence of Fc/Fc by cyclic voltammetry; format: physicochemical
[10] = Growth inhibition of human SF268 cells assessed as cell growth at 10 uM incubated for 48 hrs by sulforhodamine B assay relative to control; format: functional; conditions: SF-268, 48 h, read-out: Activity
MDA-MB-435 = assay: Growth inhibition of human MDA-MB-435 cells assessed as cell growth at 10 uM incubated for 48 hrs by sulforhodamine B assay relative to control; format: functional; conditions: MDA-MB-435, 48 h, read-out: Activity
NCI-H226 = assay: Growth inhibition of human NCI-H226 cells assessed as cell growth at 10 uM incubated for 48 hrs by sulforhodamine B assay relative to control; format: functional; conditions: NCI-H226, 48 h, read-out: Activity
[11] = Growth inhibition of human Hs 578T cells assessed as cell growth at 10 uM incubated for 48 hrs by sulforhodamine B assay relative to control; format: functional; conditions: read-out: Activity
[12] = Growth inhibition of human SF295 cells assessed as cell growth at 10 uM incubated for 48 hrs by sulforhodamine B assay relative to control; format: functional; conditions: SF-295, 48 h, read-out: Activity
[13] = Growth inhibition of human HCT116 cells assessed as cell growth at 10 uM incubated for 48 hrs by sulforhodamine B assay relative to control; format: functional; conditions: HCT-116, 48 h, read-out: Activity
[14] = Growth inhibition of human IGROV1 cells assessed as cell growth at 10 uM incubated for 48 hrs by sulforhodamine B assay relative to control; format: functional; conditions: IGROV-1, 48 h, read-out: Activity
SK-MEL-5 = assay: Growth inhibition of human SK-MEL-5 cells assessed as cell growth at 10 uM incubated for 48 hrs by sulforhodamine B assay relative to control; format: functional; conditions: SK-MEL-5, 48 h, read-out: Activity
T47D = assay: Growth inhibition of human T47D cells assessed as cell growth at 10 uM incubated for 48 hrs by sulforhodamine B assay relative to control; format: functional; conditions: read-out: Activity
[15] = Growth inhibition of human OVCAR8 cells assessed as cell growth at 10 uM incubated for 48 hrs by sulforhodamine B assay relative to control; format: functional; conditions: OVCAR-8, 48 h, read-out: Activity
[16] = Cytotoxicity against human GM00637 cells assessed as reduction in cell viability after 72 hrs by MTT assay; format: cell-based; conditions: GM00637, 72 h
MDA-MB-231 = assay: Growth inhibition of human MDA-MB-231/ATCC cells assessed as cell growth at 10 uM incubated for 48 hrs by sulforhodamine B assay relative to control; format: functional; conditions: MDA-MB-231, 48 h, read-out: Activity
[17] = Quasi-reversible one electron redox potential in dichloromethane containing 0.1 M TBAP assessed as redox potential during 0/-1 redox transition at 2 mmol measured at 100 mV/s in presence of Fc/Fc by cyclic voltammetry; format: physicochemical
[18] = Growth inhibition of human UO31 cells assessed as cell growth at 10 uM incubated for 48 hrs by sulforhodamine B assay relative to control; format: functional; conditions: UO-31, 48 h, read-out: Activity
Malme-3M = assay: Growth inhibition of human MALME-3M cells assessed as cell growth at 10 uM incubated for 48 hrs by sulforhodamine B assay relative to control; format: functional; conditions: read-out: Activity
[19] = Growth inhibition of human LOXIMVI cells assessed as cell growth at 10 uM incubated for 48 hrs by sulforhodamine B assay relative to control; format: functional; conditions: LOX IMVI, read-out: Activity
K562 = assay: Growth inhibition of human K562 cells assessed as cell growth at 10 uM incubated for 48 hrs by sulforhodamine B assay relative to control; format: functional; conditions: K562, 48 h, read-out: Activity
SN12C = assay: Growth inhibition of human SN12C cells assessed as cell growth at 10 uM incubated for 48 hrs by sulforhodamine B assay relative to control; format: functional; conditions: read-out: Activity
[20] = Growth inhibition of human OVCAR5 cells assessed as cell growth at 10 uM incubated for 48 hrs by sulforhodamine B assay relative to control; format: functional; conditions: OVCAR-5, 48 h, read-out: Activity
[21] = Growth inhibition of human OVCAR3 cells assessed as cell growth at 10 uM incubated for 48 hrs by sulforhodamine B assay relative to control; format: functional; conditions: OVCAR-3, 48 h, read-out: Activity
KM12 = assay: Growth inhibition of human KM12 cells assessed as cell growth at 10 uM incubated for 48 hrs by sulforhodamine B assay relative to control; format: functional; conditions: KM12, 48 h, read-out: Activity
[22] = Growth inhibition of human UACC62 cells assessed as cell growth at 10 uM incubated for 48 hrs by sulforhodamine B assay relative to control; format: functional; conditions: UACC-62, 48 h, read-out: Activity

O=c1ccc2nc(-c3ccccc3)nn(-c3ccccc3)c-2c1
growth at 10 µM [1]: -76.8% | growth at 10 µM (A498): 84.4% | growth at 10 µM [2]: 69.5% | growth at 10 µM [3]: 100% | growth at 10 µM [4]: -90.9% | growth at 10 µM [5]: -33% | growth at 10 µM [6]: -75.9% | growth at 10 µM (SK-MEL-2): 44.6% | growth at 10 µM [7]: 105% | growth at 10 µM [8]: -60.5% | growth at 10 µM (NCI-H460): 61.5% | Activity [9]: -1.75 V | growth at 10 µM [10]: 70.5% | growth at 10 µM (MDA-MB-435): 24.6% | growth at 10 µM (NCI-H226): 66.1% | growth at 10 µM [11]: 75.9% | growth at 10 µM [12]: 23.9% | growth at 10 µM [13]: -90.7% | growth at 10 µM [14]: 2.56% | growth at 10 µM (SK-MEL-5): 19.5% | growth at 10 µM (T47D): -36.5% | growth at 10 µM [15]: -2.36% | pIC50 [16]: 6.64 | growth at 10 µM (MDA-MB-231): 76.3% | Activity [17]: -1.12 V | growth at 10 µM [18]: -97.5% | growth at 10 µM (Malme-3M): -92.5% | growth at 10 µM [19]: -51.6% | growth at 10 µM (K562): -39% | growth at 10 µM (SN12C): 40.2% | growth at 10 µM [20]: 102% | growth at 10 µM [21]: -96.2% | growth at 10 µM (KM12): 63.1% | growth at 10 µM [22]: 30.1%

O=c1ccc2nc(C(F)(F)F)nn(-c3ccccc3)c-2c1
growth at 10 µM [1]: -70.7% | growth at 10 µM (A498): 79.9% | growth at 10 µM [2]: 66% | growth at 10 µM [3]: 102% | growth at 10 µM [4]: 56% | growth at 10 µM [5]: 35.2% | growth at 10 µM [6]: -79.7% | growth at 10 µM (SK-MEL-2): 78.3% | growth at 10 µM [7]: 92.8% | growth at 10 µM [8]: -63.3% | growth at 10 µM (NCI-H460): 97.3% | Activity [9]: -1.55 V | growth at 10 µM [10]: 77.4% | growth at 10 µM (MDA-MB-435): 62.3% | growth at 10 µM (NCI-H226): 77.7% | growth at 10 µM [11]: 74% | growth at 10 µM [12]: 91.9% | growth at 10 µM [13]: 35.2% | growth at 10 µM [14]: 71.7% | growth at 10 µM (SK-MEL-5): 32.7% | growth at 10 µM (T47D): -40.5% | growth at 10 µM [15]: 73.1% | pIC50 [16]: 5.79 | growth at 10 µM (MDA-MB-231): 61% | Activity [17]: -0.86 V | growth at 10 µM [18]: 24% | growth at 10 µM (Malme-3M): -41.7% | growth at 10 µM [19]: 4.3% | growth at 10 µM (K562): -35.1% | growth at 10 µM (SN12C): 67.9% | growth at 10 µM [20]: 102% | growth at 10 µM [21]: -26.1% | growth at 10 µM (KM12): 96.8% | growth at 10 µM [22]: 66.4%
